The source of these data is patent US20180282323A1, “Mesoionic imidazole derivatives as insecticides” (BAYER CROPSCIENCE AKTIENGESELLSCHAFT, priority 2015, published 2018).

The nature of series [1]: log P by HPLC on reversed-phase column (EEC directive 79/831 Annex V.A8). It counts as physicochemical. Conditions: HPLC on reversed-phase column. An outline of the steps: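 Reversed-phase (C18) HPLC at 43° C, following EEC directive 79/831 Annex V.A8.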
A further series concerns Myzus persicae. The series can be described thus: Myzus persicae oral test. It counts as in vivo. Conditions: application rate 20 ppm, oral uptake through parafilm, after 5 days. As for the experimental part: Myzus persicae—Oral Test Solvent: 100 parts by weight of acetone
To produce an appropriate active ingredient formulation, 1 part by weight of active ingredient is dissolved with the stated parts by weight of solvent and made up with water until the desired concentration is attained.
50 μl of the active ingredient formulation are transferred into microtitre plates and made up to a final volume of 200 μl with 150 μl of IPL41 insect medium (33%+15% sugar). Subsequently, the plates are sealed with parafilm, which a mixed population of green peach aphids (Myzus persicae) within a second microtitre plate is able to puncture and imbibe the solution through it.
After 5 days, the efficacy in % is determined. 100% means that all the aphids have been killed; 0% means that no aphids have been killed.

In the case of `O=C(NC1CC1)c1c([O-])n(Cc2ccc(C(F)(F)F)nc2)c2cccc[n+]12` [Example I-1-200], the “log p a)” value in series [1] worked out at 1.87. Also, the efficacy with Myzus persicae is 90%.
In the same order, the values of `O=C(NC1CC1)c1c([O-])n(Cc2cnc(Cl)c(Cl)c2)c2cccc[n+]12` [Example I-1-201] are 2.08 and 100%.
Taken in the same sequence, the figures for `COCC(=O)c1c([O-])n(Cc2ccc(Cl)nc2)c2c(F)ccc[n+]12` [Example I-1-205] were 1.44 and 100%.
Taken in the same sequence, the figures for `COC(=O)c1c([O-])n(Cc2cnc(Cl)s2)c2c(C)ccc[n+]12` [Example I-1-206] were 1.46 and 100%.
As to `O=C(CCl)c1c([O-])n(Cc2ccc(F)nc2)c2cccc[n+]12` [Example I-1-207], in series [1], the “log p a)” value is on record as 1.38. Besides, the efficacy with Myzus persicae is 100%.
In the same order, the values of `COc1ccc(NC(=O)c2c([O-])n(Cc3cnc(Cl)s3)c3c(C)ccc[n+]23)cc1` [Example I-1-208] are 2.91 and 100%.
In the same order, the values of `O=C(CCl)c1c([O-])n(Cc2cnc(Cl)s2)c2cccc[n+]12` [Example I-1-209] are 1.24 and 100%.
Taken in the same sequence, the figures for `Cc1ccc[n+]2c(C(=O)Nc3ccccc3)c([O-])n(Cc3cnc(Cl)s3)c12` [Example I-1-211] were 3.1 and 90%.
Turning to `Cc1ccc[n+]2c(C(=O)Nc3c(F)cccc3F)c([O-])n(Cc3cnc(Cl)s3)c12` [Example I-1-212], the “log p a)” value in series [1] was determined as 2.73. The molecule also came in with an efficacy with Myzus persicae of 100%.
Take `Cc1ccc[n+]2c(C(=O)NC(C)(C)C)c([O-])n(Cc3cnc(Cl)s3)c12` [Example I-1-213]: the “log p a)” value in series [1] is on record as 2.69. The molecule also displayed an efficacy in the series with Myzus persicae of 100%.
In the same order, the values of `COC(=O)c1c([O-])n(Cc2ccc(F)nc2)c2c(C)ccc[n+]12` [Example I-1-214] are 1.21 and 100%.
Taken in the same sequence, the figures for `COC(=O)c1c([O-])n(Cc2cnc(C)cn2)c2cccc[n+]12` [Example I-1-215] were 0.80 and 100%.
In the same order, the values of `Cc1cnc(Cn2c([O-])c(C(=O)Nc3ccccc3)[n+]3ccccc23)cn1` [Example I-1-218] are 2.05 and 100%.
Turning to `Cc1ccc[n+]2c(C(=O)Nc3ccc(F)cc3)c([O-])n(Cc3ccc(Cl)nc3)c12` [Example I-1-219], the “log p a)” value in series [1] is 2.9. The same molecule showed an efficacy in the series on Myzus persicae of 100%.
`Cc1ccc[n+]2c(C(=O)NC3CC3)c([O-])n(Cc3ccc(F)nc3)c12` [Example I-1-222]: in series [1], the “log p a)” value stood at 1.58. Further, in the series with Myzus persicae, the efficacy amounted to 100%.
In the same order, the values of `Cc1ncc(Cn2c([O-])c(C(=O)NC3CC3)[n+]3cccc(C)c23)s1` [Example I-1-223] are 1.45 and 100%.
In the same order, the values of `CCNC(=O)c1c([O-])n(C(C)c2ccc(Cl)nc2)c2cccc[n+]12` (stereo not drawn) [Example I-1-228] are 1.72 and 100%.
Taken in the same sequence, the figures for `CC(c1ccc(Cl)nc1)n1c([O-])c(C(=O)Nc2ccccc2)[n+]2ccccc12` (stereo not drawn) [Example I-1-229] were 2.8 and 100%.
For the molecule `O=C(Nc1ccccc1Cl)c1c([O-])n(Cc2cnc(Cl)s2)c2cccc[n+]12` [Example I-1-234], the “log p a)” value in series [1] is listed as 3.29. Besides, the efficacy in the series with Myzus persicae is on record as 100%.
Taken in the same sequence, the figures for `COc1ccc(NC(=O)c2c([O-])n(Cc3cnc(Cl)s3)c3cccc[n+]23)cc1` [Example I-1-236] were 2.62 and 100%.
In the same order, the values of `COc1ccc(NC(=O)c2c([O-])n(C(C)c3ccc(Cl)nc3)c3cccc[n+]23)cc1` (stereo not drawn) [Example I-1-237] are 2.66 and 90%.
